Where “and” joins values, the source holds several entries; their conditions need not be identical. Identical values can stand only once. Bounds are passed on as bounds.

In one data set the test system is A2780 ovarian. The data set can be described thus: MTT cell viability assay (GI50), A2780. The format is cell-based, human. The note with it: for SCI: GI50 (MCF10A)/GI50 (A2780); for GI50: A2780 ovarian, MTT. In general terms: Tetrazolium assays rely on reduction of a dye to a coloured formazan, in cell work by metabolically active cells.
The next data set has as its system U87 glioblastoma. The data set can be described thus: MTT cell viability assay (GI50), U87. The format is cell-based, human. The note with it: for SCI: GI50 (MCF10A)/GI50 (U87); for GI50: U87 glioblastoma, MTT.
A further data set relates to HT29 colon cells. Description: DCFDA cellular ROS production assay. The class given is cell-based, human. The note with it: GI50 drug concentration (TBHP 20 μM). The protocol: All values are expressed as relative fluorescence units (RFU).
To evaluate the presence of ROS in treated cells, a DCFDA/H2DCFDA-cellular ROS Assay Kit (Abcam, Cambridge, MA, USA) was used, as previously described. A total of 25,000 cells/mL of HT29 cells in DMEM were seeded in 96-well plates. Cells were washed with 1X kit buffer, and then stained with 25 μM 2′,7′-dichlorofluorescein diacetate (DCFH-DA) and incubated for 45 min. DCFH-DA was then removed, and cells were then re-washed with 1X kit buffer, after which phenol red free media was added. Cells were then treated with a GI50 drug concentration for each complex. The plates were directly scanned to measure fluorescence (relative fluorescence units (RFU)) at the time points indicated the Glo-Max®-Multimode microplate reader (Promega Corporation, Alexandra, VIC, Australia) at an excitation/emission of 485/535 nm, which is directly correlated to the DCFH-DA that is deacetylated by cellular esterases and then oxidised by ROS to the fluorescent compound DCF. To generate the positive control (20 μM tert-butyl hydroperoxide (TBHP)), cells were washed with 1X kit buffer, and stained with DCFDA (25 μM) for 45 min; this was removed and TBHP was added in phenol red free media, and the resulting solution was scanned as described above.

Another data set concerns SJ-G2 glioblastoma. The data set can be described thus: MTT cell viability assay (GI50), SJ-G2. The format is cell-based, human. The note with it: for SCI: GI50 (MCF10A)/GI50 (SJ-G2); for GI50: SJ-G2 glioblastoma, MTT.
The subject of data set [1] is histone deacetylase (HDAC). Description: Fluorometric HDAC activity assay on extracts of treated HT29 cells. The format is cell-based, human. The note with it: HT29 colon cells treated 72 h at GI50 concentration; lower RFU = decline in HDAC activity; HT29 extract control 5154 ± 40. How it is done: All values are expressed as RFU.
To study the HDAC activity in HT29 treated cells, a Fluorometric HDAC Activity Assay Kit ab156064 (Abcam, Cambridge, MA, USA) was used and all sample preparations were made based on the manufacturer’s protocol. A total of 10^6 cells/mL of HT29 cells were seeded in DMEM with serum deprivation for 18 h to synchronise the cells. […] Cells were then washed with cold PBS and resuspended in lysis buffer (10 mM Tris HCl (pH 7.5), 10 mM NaCl, 15 mM MgCl2, 250 mM sucrose, 0.5% NP-40 and 0.1 mM EGTA) and lysed on ice for 20 min. Cells were centrifuged through 4 mL of sucrose cushion (30% sucrose, 10mM Tris HCl (pH 7.5), 10 mM NaCl and 3mM MgCl2) at 1300× g for 10 min at 4 °C. Supernatant was discarded and the pellet was washed and resuspended in extraction buffer (50 mM HEPES-KOH (pH 7.5), 420 mM NaCl, 0.5 mM EDTA 2Na, 0.1 mM EGTA and 10% glycerol) and then sonicated for 30 s. Nuclei were lysed for 30 min on ice and centrifuged at 20,000× g for 30 min. The supernatant was collected, and the samples were prepared for the fluorometric assay according to the manufacturer’s protocol (Histone Deacetylase (HDAC) Activity Assay Fluorometric Kit ab156064, Abcam). The changes in the relative fluorescence intensity (expressed as RFU) were recorded each minute over 60 min using the Glo-Max®-Multimode microplate reader (Promega Corporation, Alexandra, VIC, Australia) at an excitation/emission of 355/460 nm.

The next data set has as its system MIA pancreas. The data set can be described thus: MTT cell viability assay (GI50), MIA. The format is cell-based, human. The note with it: for SCI: GI50 (MCF10A)/GI50 (MIA); for GI50: MIA pancreas, MTT.
Another data set relates to A431 skin. Description: MTT cell viability assay (GI50), A431. The class given is cell-based, human. The note with it: for SCI: GI50 (MCF10A)/GI50 (A431); for GI50: A431 skin, MTT.
The subject of another data set is HT29 colon. Description: MTT cell viability assay (GI50), HT29. The note with it: for SCI: GI50 (MCF10A)/GI50 (HT29); for GI50: MTT. The class given is cell-based, human.
Data set [2] is described as follows: Reduction with ascorbic acid (AsA) followed by 1H-NMR and 1D-195Pt-NMR. The class given is physicochemical. The note with it: PBS, DMSO-d6, 37 °C; for Approximate Reduction Time Points T50%: time at which 50% of reduction occurs; for Approximate Reduction Time Points T100%: time at which 100% of reduction occurs. How it is done:
The biological reductant selected for this study is AsA. Briefly, sequential ^1H-NMR experiments were performed for 1 h at 37 °C, proceeded by 1D-^195Pt-NMR at 400 and −2800 ppm (30 min per region). It is noteworthy that the purity of each complex was examined prior the reduction experiments ensuring that no traces of platinum(II) species were evident in the samples used. All complexes were dissolved in PBS and DMSO-d6, without the reductant. Preliminary 1D-^195Pt-NMR measurements were conducted at 37 °C at 400 and −2800 ppm. […] Upon treatment of the platinum(IV) complexes with AsA, there was considerable reduction observed in the ^1H-NMR and 1D-^195Pt-NMR spectra acquired (Figures S31–S36). Notable changes in chemical multiplicity were recorded in the ^1H-NMR reduction spectra of P-5B3A, 5-5B3A and 56-5B3A (Figures S31, S33 and S35), especially along the aromatic region. The estimated reduction time points for P-5B3A, 5-5B3A and 56-5B3A are also outlined in Table 3.
The reduction behaviour of P-5B3A, 5-5B3A and 56-5B3A was investigated using ^1H-NMR and 1D-^195Pt-NMR spectroscopy, using previously established methods.

A short description of data set [3]: Lipophilicity by analytical HPLC (log kw). The class given is physicochemical. An excerpt: The order of complexes by increasing lipophilicity is P-5B3A < 5-5B3A < 56-5B3A (Table 2 and Figure S27). It can be deduced that increasing methylation on the heterocyclic ligand increased lipophilicity. This trend agrees with published data. The determined log kw values are consistent and within the range of the log kw values determined for similar complexes reported in the literature.
Lipophilicity measurements were completed via analytical HPLC, as previously reported.

A short description of data set [4]: Stability in PBS monitored by analytical HPLC. The note with it: PBS pH ~7.4, ~10 mM, 37 °C, one week, HPLC at 254 nm. The format is physicochemical. The protocol:
The stability of P-5B3A, 5-5B3A and 56-5B3A was monitored via analytical HPLC.
The stability of P-5B3A, 5-5B3A and 56-5B3A were measured at 254 nm. Each complex was incubated in aqueous phosphate-buffered saline (PBS) solution (pH ~7.4) (total sample concentration, ~10 mM) at 37 °C for one week. Analytical HPLC was utilised to monitor the experiments.

As for `N.N.[Cl][Pt][Cl]` [Cisplatin, cis-diammineplatinum(II) dichloride], the SCI in the data set on A2780 ovarian worked out at 5.20; with U87 glioblastoma, 1.37; with SJ-G2 glioblastoma, 13.00; in the data set on MIA pancreas, 0.69; in the data set with A431 skin it was 2.17; with HT29 colon, 0.46. Further, the “ROS Production” value in the data set on HT29 colon cells (24 h, control 60 ± 3) turned out to be 265 ± 19 RFU; in the data set with HT29 colon cells (48 h, control 63 ± 4) it was 299 ± 22 RFU; with HT29 colon cells (72 h, control 85 ± 6), 364 ± 18 RFU. Moreover, the “HDAC Inhibition at 72 h” value in data set [1] is 3698 ± 59 RFU.

Usually GI50 stands for the concentration that inhibits growth by half. A lower GI50 goes with more potent growth inhibition. As for “[Pt^IV(5,6-Me2phen)(SS-DACH)(5B3A)(OH)]^2+ [56-5B3A]”, the “Approximate Reduction Time Points T50%” value in data set [2] fell in the range of 0 to 5 min. Besides, in data set [2], the “Approximate Reduction Time Points T100%” value is given as 10 min. The concentration for 50% growth inhibition (GI50) with A2780 ovarian is 18 ± 6.1 nM; in the data set with U87 glioblastoma, 88 ± 7 nM; in the data set with SJ-G2 glioblastoma, 110 ± 20 nM; with MIA pancreas, 12 ± 3 nM; in the data set with A431 skin it was 33 ± 8.4 nM; in the data set with HT29 colon (HT29 colon), 4.4 ± 1.6 nM. Besides, the SCI in the data set on A2780 ovarian worked out at 0.18; in the data set on U87 glioblastoma it was 0.04; in the data set with SJ-G2 glioblastoma, 0.03; in the data set with MIA pancreas it was 0.28; in the data set on A431 skin, 0.10; in the data set on HT29 colon, 0.75. Further, the “ROS Production” value with HT29 colon cells (24 h, control 60 ± 3) was 274 RFU and 274 ± 9 RFU; in the data set with HT29 colon cells (48 h, control 63 ± 4) it was 418 RFU and 418 ± 15 RFU; with HT29 colon cells (72 h, control 85 ± 6), 474 ± 10 RFU. Moreover, the “HDAC Inhibition at 72 h” value in data set [1] is 2550 ± 57 RFU. Further, the “log kw Values” in [3] was 2.11. Moreover, in data set [4], the Stability entry was “adequately stable in aqueous solution for up to 1 week”.

“[Pt^IV(5-Mephen)(SS-DACH)(5B3A)(OH)]^2+ [5-5B3A]”: the “Approximate Reduction Time Points T50%” value in [2] is 5 to 10 min. Besides, the “Approximate Reduction Time Points T100%” value in data set [2] is recorded as 30 min. For the same compound, the GI50 with A2780 ovarian stood at 42 ± 4 nM; with U87 glioblastoma, 240 ± 23 nM; in the data set on SJ-G2 glioblastoma, 200 ± 40 nM; with MIA pancreas, 31 ± 3 nM; in the data set with A431 skin it was 93 ± 8 nM; in the data set with HT29 colon (HT29 colon) it was 18 ± 0.67 nM. The SCI in the data set on A2780 ovarian was found to be 0.45; with U87 glioblastoma it was 0.08; in the data set with SJ-G2 glioblastoma, 0.10; in the data set with MIA pancreas, 0.61; in the data set on A431 skin, 0.20; with HT29 colon it was 1.06. Further, the “ROS Production” value was 160 RFU and 160 ± 11 RFU in the data set with HT29 colon cells (24 h, control 60 ± 3); 230 RFU and 230 ± 9 RFU in the data set on HT29 colon cells (48 h, control 63 ± 4); 315 RFU and 315 ± 14 RFU with HT29 colon cells (72 h, control 85 ± 6). Further, the “HDAC Inhibition at 72 h” value in [1] is 2791 ± 72 RFU. Besides, the “log kw Values” in [3] is given as 1.91. The Stability entry in [4] was “adequately stable in aqueous solution for up to 1 week”. Further, in the data set on HT29 colon (HT29 colon, GI50 ratio), the “fold more potent than cisplatin” value is given as approximately 630 fold.

Take “[Pt^IV(phen)(SS-DACH)(5B3A)(OH)]^2+ [P-5B3A]”: the “Approximate Reduction Time Points T50%” value in data set [2] fell in the range of 10 to 15 min. For the same compound, in data set [2], the “Approximate Reduction Time Points T100%” value is given as 60 min. For the same compound, the GI50 with A2780 ovarian worked out at 470 ± 18 nM; in the data set on U87 glioblastoma, 1900 ± 150 nM; with SJ-G2 glioblastoma it was 1300 ± 200 nM; in the data set on MIA pancreas, 310 ± 26 nM; with A431 skin, 1200 ± 100 nM; in the data set on HT29 colon (HT29 colon) it was 200 ± 27 nM. The SCI in the data set on A2780 ovarian stood at 0.60; in the data set on U87 glioblastoma, 0.15; in the data set with SJ-G2 glioblastoma, 0.22; with MIA pancreas, 0.90; in the data set on A431 skin it was 0.23; in the data set with HT29 colon, 1.40. The “ROS Production” value is 156 RFU and 156 ± 16 RFU in the data set with HT29 colon cells (24 h, control 60 ± 3); 214 RFU and 214 ± 12 RFU with HT29 colon cells (48 h, control 63 ± 4); 246 ± 11 RFU in the data set with HT29 colon cells (72 h, control 85 ± 6). The “HDAC Inhibition at 72 h” value in data set [1] came to 3620 ± 35 RFU. Moreover, the “log kw Values” in data set [3] was determined as 1.82. Also, the Stability entry in data set [4] was “adequately stable in aqueous solution for up to 1 week”. Also, the “fold more potent than carboplatin” value in the data set on HT29 colon (HT29 colon, GI50 ratio) is listed as not below 250 fold. Further, the “fold more potent than cisplatin” value in the data set on HT29 colon (HT29 colon, GI50 ratio) is reported as “at least 57 fold”. In the data set with HT29 colon (HT29 colon, GI50 ratio), the “fold more potent than oxaliplatin” value is listed as not below 5 fold.

The record behind these values is paper PMC10888562 (International Journal of Molecular Sciences, 2024).
